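Exposure lasted 48 hours, with cells grown in 96-well plates and compounds tested at five concentrations. GI50 marks 50% less growth. The concentration for full growth arrest is given as TGI.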
Assays:
Assay in all cases: DTP human tumour cell line panel, 48 h
[1] = test system: HCC-2998 colon
[2] = test system: HOP-92 NSCLC
[3] = test system: NCI-H23 lung
[4] = test system: NCI-H226 lung
[5] = test system: HCT-15 colon
[6] = test system: OVCAR-8 ovarian
[7] = test system: SK-MEL-28 melanoma
[8] = test system: SW-620 colon
[9] = test system: SK-MEL-5 melanoma
[10] = test system: SF-268 CNS
[11] = test system: SN12C renal
[12] = test system: EKVX NSCLC
[13] = test system: UO-31 renal
[14] = test system: IGROV1 ovarian
[15] = test system: UACC-257 melanoma
[16] = test system: A549 NSCLC
[17] = test system: M14 melanoma
[18] = test system: LXFL 529 NSCLC
[19] = test system: DMS 114 small cell lung
[20] = test system: CAKI-1 renal
[21] = test system: OVCAR-5 ovarian
[22] = test system: A498 renal
[23] = test system: SF-295 CNS
[24] = test system: KM20L2 colon
[25] = test system: SNB-19 CNS
[26] = test system: MALME-3M melanoma
[27] = test system: SNB-75 CNS
[28] = test system: RPMI-8226 leukemia
[29] = test system: DMS 273 small cell lung
[30] = test system: SNB-78 CNS
[31] = test system: ACHN renal
[32] = test system: HCT-116 colon
[33] = test system: TK-10 renal
[34] = test system: NCI-H460 lung
[35] = test system: HT29 colon
[36] = test system: RXF-631 renal
[37] = test system: UACC-62 melanoma
[38] = test system: MOLT-4 leukemia
[39] = test system: LOX IMVI melanoma
[40] = test system: M19-MEL melanoma
[41] = test system: OVCAR-4 ovarian
[42] = test system: SR leukemia
[43] = test system: XF 498 CNS
[44] = test system: KM12 colon
[45] = test system: HOP-62 NSCLC
[46] = test system: OVCAR-3 ovarian
[47] = test system: SF-539 CNS
[48] = test system: DLD-1 colon
[49] = test system: U251 CNS
[50] = test system: SK-OV-3 ovarian
[51] = test system: COLO 205 colon
[52] = test system: SK-MEL-2 melanoma
[53] = test system: MCF7 breast
[54] = test system: HS 578T breast
[55] = test system: RXF 393 renal
[56] = test system: NCI-H522 lung
[57] = test system: DU-145 prostate
[58] = test system: PC-3 prostate
[59] = test system: CCRF-CEM leukemia
[60] = test system: HL-60(TB) leukemia
[61] = test system: T-47D breast
[62] = test system: MDA-MB-435
[63] = test system: 786-0 renal
[64] = test system: MDA-MB-231 breast
[65] = test system: K-562 leukemia
[66] = test system: NCI/ADR-RES ovarian
[67] = test system: HOP-18 NSCLC

In the case of `Cc1ccccc1NC(=O)CC(=O)N1N=C(N2c3ccccc3Sc3ccccc32)CC1c1ccccc1` (configuration not stated), the TGI [1] is reported as > 100 µM, the TGI [2] is reported as > 100 µM and the TGI [3] is reported as > 100 µM. For the same molecule, the TGI [4] was > 100 µM, the TGI [5] was > 100 µM and the TGI [6] was > 100 µM. For the same molecule, the TGI [7] was > 100 µM, the TGI [8] was > 100 µM and the TGI [9] was > 100 µM. The TGI [10] was > 100 µM, the TGI [11] was > 100 µM and the TGI [12] was > 100 µM. For the same molecule, the TGI [13] was > 100 µM, the TGI [14] was > 100 µM and the TGI [15] was > 100 µM. The TGI [16] was > 100 µM, the TGI [17] was > 100 µM and the TGI [18] was > 100 µM. For the same molecule, the TGI [19] was > 100 µM, the TGI [20] was > 100 µM and the TGI [21] was > 100 µM. The TGI [22] was > 100 µM, the TGI [23] was > 100 µM and the TGI [24] was > 100 µM. For the same molecule, the TGI [25] was > 100 µM, the TGI [26] was > 100 µM and the TGI [27] was > 100 µM. The TGI [28] was > 100 µM, the TGI [29] was > 100 µM and the TGI [30] was > 100 µM. The TGI [31] was > 100 µM, the TGI [32] was > 100 µM and the TGI [33] was > 100 µM. For the same molecule, the TGI [34] was > 100 µM, the TGI [35] was > 100 µM and the TGI [36] was > 100 µM. The TGI [37] was > 100 µM, the TGI [38] was > 100 µM and the TGI [39] was > 100 µM. The TGI [40] was > 100 µM, the TGI [41] was > 100 µM and the TGI [42] was > 100 µM. The TGI [43] was > 100 µM, the TGI [44] was > 100 µM and the TGI [45] was > 100 µM. For the same molecule, the TGI [46] was > 100 µM, the TGI [47] was > 100 µM and the TGI [48] was > 100 µM. For the same molecule, the TGI [49] was > 100 µM, the TGI [50] was > 100 µM and the TGI [51] was > 100 µM.
`CC(CN1CCN(CC(C)Nc2ccnc3cc(Cl)ccc23)CC1)Nc1ccnc2cc(Cl)ccc12` (configuration not stated) was tested, and the TGI [1] was 50.2 µM, the GI50 [2] was 1.59 µM and the TGI [2] was 13.2 µM. For the same molecule, the TGI [3] was > 57 µM, the TGI [4] was > 69.5 µM and the TGI [5] was 19.6 µM. The TGI [6] was > 64 µM, the GI50 [52] was 25.8 µM and the TGI [52] was 62.7 µM. For the same molecule, the TGI [7] was 10.4 µM, the GI50 [8] was 2.82 µM and the TGI [8] was > 100 µM. For the same molecule, the TGI [9] was 23.5 µM, the GI50 [53] was 8.29 µM and the TGI [53] was > 100 µM. For the same molecule, the GI50 [54] was 2.55 µM, the TGI [54] was 9.69 µM and the TGI [10] was > 36 µM. The TGI [11] was > 71.6 µM, the TGI [55] was 14.7 µM and the TGI [12] was > 58.9 µM. It also gave a TGI [13] of 30.7 µM, a TGI [56] of 21.3 µM and a GI50 [14] of 9.37 µM. For the same molecule, the TGI [14] was > 100 µM, the TGI [15] was 29.5 µM and the GI50 [57] was 7.83 µM. The TGI [57] was > 100 µM, the TGI [16] was > 57 µM and the TGI [17] was 10.5 µM. For the same molecule, the TGI [18] was 30.7 µM, the TGI [19] was 41 µM and the TGI [20] was > 100 µM. The TGI [21] was > 68.6 µM, the TGI [22] was > 56.8 µM and the TGI [23] was 51.2 µM. For the same molecule, the TGI [24] was 26.9 µM, the TGI [25] was > 79.9 µM and the TGI [26] was 26.5 µM. For the same molecule, the TGI [27] was 18.3 µM, the TGI [28] was > 20.1 µM and the TGI [29] was 29.8 µM. It also gave a TGI [30] of 38 µM, a TGI [31] of 64.6 µM and a GI50 [58] of 3.04 µM. The TGI [58] was 57.2 µM, the TGI [32] was 12.9 µM and the TGI [59] was > 100 µM. It also gave a TGI [60] of 19.3 µM, a TGI [33] of 49.2 µM and a TGI [34] of 14.3 µM. For the same molecule, the TGI [35] was > 53.8 µM, the GI50 [61] was 35.2 µM and the TGI [61] was 74.6 µM. For the same molecule, the GI50 [62] was 2.74 µM, the TGI [62] was 9.38 µM and the TGI [36] was 25.3 µM. The TGI [63] was 33.8 µM, the TGI [37] was 32.5 µM and the GI50 [64] was 2.72 µM. For the same molecule, the TGI [64] was 7.52 µM, the TGI [65] was > 100 µM and the TGI [38] was > 100 µM. The TGI [39] was 8.19 µM, the TGI [40] was 41.4 µM and the TGI [41] was > 61.6 µM. For the same molecule, the TGI [42] was 7.45 µM, the TGI [43] was 37.9 µM and the TGI [44] was > 51.8 µM. For the same molecule, the TGI [45] was > 63 µM, the TGI [46] was > 64.4 µM and the TGI [47] was 10.4 µM. It also gave a TGI [48] of 41.1 µM, a TGI [49] of 42.2 µM and a GI50 [66] of 83.6 µM. For the same molecule, the TGI [66] was > 100 µM, the TGI [50] was 76.7 µM and the TGI [51] was 31.8 µM.
For `CCCCCCCCCCCC(=O)c1c(O)cccc1O`, the TGI [1] was 34.3 µM, the TGI [2] was 32.3 µM and the TGI [3] was 32.2 µM. It also gave a TGI [4] of 34.7 µM, a TGI [5] of 33.4 µM and a TGI [6] of 33.5 µM. For the same molecule, the TGI [52] was 30 µM, the TGI [7] was 32 µM and the TGI [8] was 33.5 µM. The TGI [9] was 26.7 µM, the TGI [10] was 30.4 µM and the TGI [11] was 34.7 µM. For the same molecule, the TGI [55] was 40.4 µM, the TGI [12] was 33.6 µM and the TGI [13] was 30.2 µM. It also gave a TGI [56] of 33.2 µM, a TGI [14] of 32.4 µM and a TGI [15] of 30.8 µM. The TGI [16] was 33.7 µM, the TGI [17] was 33.3 µM and the TGI [18] was 32.6 µM. The TGI [19] was 34 µM, the TGI [20] was 56.7 µM and the TGI [21] was 28.5 µM. It also gave a TGI [23] of 31.4 µM, a TGI [24] of 48.5 µM and a TGI [25] of 30.4 µM. The TGI [26] was 29.5 µM, the TGI [27] was 31.9 µM and the TGI [28] was 68.5 µM. The TGI [29] was 34 µM, the TGI [30] was 43.9 µM and the TGI [31] was 33.8 µM. It also gave a TGI [32] of 33.1 µM, a TGI [59] of 62.8 µM and a TGI [60] of 43.6 µM. For the same molecule, the TGI [33] was 92.4 µM, the TGI [34] was 42.9 µM and the TGI [35] was 45 µM. It also gave a TGI [36] of 35.5 µM, a TGI [63] of 32.8 µM and a TGI [37] of 34.3 µM. The TGI [65] was > 100 µM, the TGI [38] was 47.8 µM and the TGI [39] was 33.7 µM. The TGI [40] was 34.5 µM, the TGI [41] was 37.6 µM and the TGI [42] was 49 µM. For the same molecule, the TGI [43] was 32.4 µM, the TGI [67] was 31 µM and the TGI [44] was 30 µM. For the same molecule, the TGI [45] was 31.5 µM, the TGI [46] was 31.4 µM and the TGI [47] was 32.4 µM. The TGI [48] was 33.8 µM, the TGI [49] was 34 µM and the TGI [50] was 85.8 µM. For the same molecule, the TGI [51] was 29 µM.

From PubChem BioAssay (NCI)
